For assay [1], the system named is HepG2 cells. The experiment in a line: TG antisecretory activity: secreted triglyceride from labeled lipid in medium. Type of assay: cell-based. The conditions noted are these: 10 µM, 24 hours of culture, control group 161.2± 2.2. The protocol: HepG2 cells were cultured in DME medium supplemented with 1% BSA and 0.5 mM oleic acid for 24 hours. Then, the medium was changed to 1% BSA-DME containing 10 µM of the amino acid of the invention and simultaneously 0.5 µci of [^14C] acetic acid was added. The cells and medium were recovered after 24 hours of culture. The recovered cells were homogenized by sonication, and after quantitation of protein, the amount of secreted triglyceride (TG) was determined from the amount of labeled lipid in the medium.

The subject of the next assay is MTP. The experiment in a line: MTP activity-lowering activity (MTP activity in liver homogenate of orally dosed rats, method of Wetterau). Type of assay: in vivo. The conditions noted are these: SD rats, control group 9.09±1.0. On the procedure: SD rats weighing about 200 g in groups of 6 were given 20 mg or 60 mg of the hydrochloride of the amino acid of the invention in 10 ml of water in 3 divided doses daily for 2 weeks. Thereafter, the liver was excised and homogenized using a homogenizing buffer (50 mM Tris (pH 7.4), 50 mM potassium chloride, […], leupeptin (5 µg/ml) and 2 mM phenylmethylsulfonyl fluoride) and the homogenate was centrifuged to give a liver homogenate. This liver homogenate was adjusted to a protein concentration of about 2 mg/mL with the same homogenizing buffer and 1 part of deoxycholate solution (0.56%, pH 7.5) was added to 10 parts of the homogenate. The reaction was then carried out at 4°C for 30 minutes, whereby MTP was liberated from the microsomal fraction. The membrane fraction was then removed by centrifugation to give a supernatant. This supernatant was diluted with Tris buffer (a buffer solution containing 15 mM Tris (pH 7.4), 40 mM NaCl, 1 mM EDTA, 0.02% NaN3) and dialyzed against the same buffer at 4°C overnight. The dialysate thus obtained was analyzed for MTP activity by the method of J. R. Wetterau [Science, 258, 999 (1992)].

Assay [2] has as its system HepG2 cells. The experiment in a line: Apo B antisecretory activity (1): apo B secreted into medium, ELISA. Type of assay: cell-based, human. The conditions noted are these: for Apo B secretions (µg/well): HepG2 cells, 24 hours culture, control group 9.92±0.80. The protocol:
HepG2 cells (100×10^4 cells/dish) were sown on 3.5 cm dishes and precultured using 1 ml DME (containing 10% FCS) medium per dish. Following this preculture, the cells were washed with DME medium twice, added to the test medium, and cultured at 37°C under 95% air-5% carbon dioxide for 24 hours. The test medium was prepared by dissolving cycloalliin in dimethyl sulfoxide and diluted with DME medium containing 1% BSA and 0.5 mM oleic acid to a final cycloalliin concentration of 10^-6 M or 10^-4 M.
After 24 hours' culture, the medium was recovered and the amount of apo B secreted into the medium was determined by ELISA. Thus, anti-human apo B antibody (a 100-fold dilution) was distributed into a 96-well ELISA plate, 100 µL per well, and incubated at 37°C for 2 hours. Then, 100 µL/well of Block Ace was added and the plate was further incubated at 37°C for 2 hours. The wells were washed with PBS-Tween × 3 and 100 µL each of apo B standard solution and HepG2 culture were added, followed by further incubation at 4°C for 16 hours. After the wells were washed with PBS-Tween × 3, 100 µL/well of anti-human apo B marker antibody (a 200-fold dilution) was added and the plate was incubated at 37°C for 2 hours. The wells were washed with PBS-Tween × 3, then 100 µL/well of the substrate solution was added, and the plate was incubated at 25°C for 30 minutes. The reaction was stopped by adding 50 µL of 4.5 M H2SO4 and the absorbance at 482 nm was measured to estimate the amount of apo B secretion.

Assay [3] has as its system HepG2 cells. As to the kind of experiment: Apo B antisecretory activity (2): apo B secretions, ELISA. Type of assay: cell-based. Conditions: 10 µM; for Apo B secretions (ng/mg protein) After 24 hr of culture: control group 2544±425; for Apo B secretions After 24 hr of culture (%) / Apo B secretions After 48 hr of culture (%): percent of control group (100); for Apo B secretions (ng/mg protein) After 48 hr of culture: control group 2080±110. The protocol: HepG2 cells were cultured in DME medium supplemented with 1% BSA and 0.5 mM oleic acid for 24 hours. Then, the medium was changed to 1% BSA-DME medium containing 10 µM of the amino acid of the invention and 0.5 µci of [^14C] acetic acid was simultaneously added. The cells and medium were recovered after 24 hours or 48 hours of culture. The recovered cells were homogenized by sonication, and after quantitation of protein, the amount of apo B secretions was determined by ELISA.

[4] abbreviates: 60 mg in 10 ml of water in 3 divided doses daily for 2 weeks.

Structures can show the parent of a compound that is named as a salt.

In the case of `C[S+]([O-])CCC(N)C(=O)O` (racemic) [DL-methionine sulfoxide], the “TG secretions ([^14C]dpm × 10^-2/mg protein)” value (“TG secretions” for short) in the assay on HepG2 cells [1] was 72.1± 8.5 [^14C]dpm × 10^-2/mg protein.

As to `C[C@H]1C[S@+]([O-])C[C@@H](C(=O)O)N1` [Cycloalliin HCl, (1S,3R,5S)-5-methyl-1,4-thiazane-3-carboxylic acid 1-oxide], the “MTP activity (%)” value in the assay on MTP (20 mg in 10 ml of water in 3 divided doses daily for 2 weeks) came out at 6.12±0.7 %; in the assay with MTP (setting [4]), 4.92±1.0 %.

For the molecule `C[C@H]1C[S@+]([O-])C[C@@H](C(=O)O)N1` [Cycloalliin, (1S,3R,5S)-5-methyl-1,4-thiazane-3-carboxylic acid 1-oxide], the “Apo B secretions (µg/well)” value amounted to 7.67±1.31 µg/well with HepG2 cells [2] (10^-4 M) and 7.54±1.13 µg/well in the assay with HepG2 cells [2] (10^-6 M). For the same molecule, the “apo B secretion (result in words)” value in the assay with HepG2 cells [2] (summary of Table 2) was “significant suppression”.

Regarding `CCSC[C@H](N)C(=O)O` [S-ethyl-L-cysteine], in the assay with HepG2 cells [3], the “Apo B secretions (ng/mg protein) After 24 hr of culture” value came out at 2390±615 ng/mg protein, the “Apo B secretions After 24 hr of culture (%)” value stood at 93.9%, the “Apo B secretions (ng/mg protein) After 48 hr of culture” value is 994±111 ng/mg protein and the “Apo B secretions After 48 hr of culture (%)” value is 47.8%. In the assay with HepG2 cells [1], the “TG secretions” value is 102.2± 7.1 [^14C]dpm × 10^-2/mg protein.

For the molecule `CSC[C@H](N)C(=O)O` [S-methyl-L-cysteine HCl, S-methyl-L-cysteine], the “MTP activity (%)” value in the assay on MTP (setting [4]) turned out to be 5.68±0.6 %.

Turning to `CSC[C@H](N)C(=O)O` [S-methyl-L-cysteine], in the assay on HepG2 cells [3], the “Apo B secretions (ng/mg protein) After 24 hr of culture” value worked out at 2511±173 ng/mg protein, the “Apo B secretions After 24 hr of culture (%)” value is 98.7%, the “Apo B secretions (ng/mg protein) After 48 hr of culture” value is listed as 1906±122 ng/mg protein and the “Apo B secretions After 48 hr of culture (%)” value worked out at 91.6%. Also, in the assay with HepG2 cells [1], the “TG secretions” value is 128.2±14.6 [^14C]dpm × 10^-2/mg protein.

As for `CCCSC[C@H](N)C(=O)O` [S-n-propyl-L-cysteine], in the assay with HepG2 cells [3], the “Apo B secretions (ng/mg protein) After 24 hr of culture” value worked out at 2157± 86 ng/mg protein, the “Apo B secretions After 24 hr of culture (%)” value is 84.8%, the “Apo B secretions (ng/mg protein) After 48 hr of culture” value was 555± 23 ng/mg protein and the “Apo B secretions After 48 hr of culture (%)” value was 26.7%. For the same molecule, the “TG secretions” value in the assay on HepG2 cells [1] is 99.0± 9.3 [^14C]dpm × 10^-2/mg protein.

“S-methyl-L-cysteine sulfoxide [S-methyl-L-cysteine sulfoxide HCl]”: the “MTP activity (%)” value in the assay on MTP (setting [4]) amounted to 5.43±0.6 %.

On to S-n-propyl-L-cysteine sulfoxide, for which the “TG secretions” value in the assay on HepG2 cells [1] was 105.8±18.9 [^14C]dpm × 10^-2/mg protein.

Values taken from patent publication EP1080724A1, “MTP ACTIVITY-LOWERING COMPOSITIONS” (Nippon Shinyaku Co., Ltd., priority 1998, dated 1999).
